Measurements from patent publication US12077503B2, “Substituted cyclic amides and their use as herbicides” (FMC CORPORATION, priority 2015, dated 2024).
Where two headings read alike, the source gives them in different places.

How the values were obtained:
Assay type in all cases: in vivo
[1] = tested on: pigweed (Amaranthus retroflexus); assay: Test A preemergence; details: Amaranthus retroflexus, pre-emergence, 240 h; for pest or weed control at 125 g/ha: 125 g ai/ha, Preemergence, visual injury rating after approximately 10 d, read-out: Pigweed plant response rating (0 to 100 scale, 0 is no effect, 100 is complete control); for pest or weed control at 500 g/ha: 500 g ai/ha, preemergence, visual injury rating about 10 d after treatment, 0 to 100 scale (0 no effect, 100 complete control), read-out: Pigweed plant response rating
[2] = tested on: sedge, umbrella (small-flower umbrella sedge, Cyperus difformis); assay: Test B flooded paddy test; details: Cyperus difformis, 250 g ai/ha, Flood, read-out: Sedge, Umbrella plant response rating
Outline: (§1)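 Flooding to 3 cm over soil accompanied treatment, which consisted of adding compound to the standing water around 2-leaf plants; depth was then maintained. Visual assessment versus controls followed at 13 to 15 d (scale 0–100, 0 meaning no effect).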

[3] = tested on: ducksalad (Heteranthera limosa); assay: Test B flooded paddy test; details: Heteranthera limosa, 250 g ai/ha, Flood, read-out: Ducksalad plant response rating
Outline: as §1

[4] = tested on: barnyardgrass (Echinochloa crus-galli); assay: Test B flooded paddy test; details: Echinochloa crus-galli, 250 g ai/ha, Flood, read-out: Barnyardgrass plant response rating
Outline: as §1

rice (Oryra sativa) = assay: Test B flooded paddy test; details: Oryza sativa, 250 g ai/ha, Flood, read-out: Rice plant response rating
Outline: as §1

Kochia (Kochia scoparia) = assay: Test A postemergence; details: Bassia scoparia, post-emergence, 240 h, read-out: Plant response rating, Kochia; for pest or weed control at 125 g/ha: 125 g ai/ha, Postemergence, visual injury after approximately 10 d, 0 to 100 scale where 0 is no effect and 100 is complete control
Outline: (§2)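 In a loam soil and sand blend, planted seeds got a preemergence directed soil spray, and young plants at the one- to two-leaf stage, 2–10 cm high, got a postemergence application; ~10 d greenhouse hold; injury rated visually, 0 = none, 100 = complete control.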

[5] = tested on: ryegrass, Italian (Italian ryegrass, Lolium multiflorum); assay: Test A postemergence; details: Lolium multiflorum, post-emergence, 240 h, read-out: Plant response rating, Ryegrass, Italian; for pest or weed control at 125 g/ha: 125 g ai/ha, Postemergence, visual injury after approximately 10 d, 0 to 100 scale where 0 is no effect and 100 is complete control
Outline: as §2

corn (Zea mays) = assay: Test A postemergence; details: Zea mays, post-emergence, 240 h; for Corn plant response rating (crop injury, 0 = no effect, 100 = complete kill) at 125 g/ha: 125 g ai/ha, Postemergence, visual injury after approximately 10 d, 0 to 100 scale where 0 is no effect and 100 is complete control
Outline: as §2

[6] = tested on: blackgrass (Alopecurus myosuroides); assay: Test A postemergence; details: Alopecurus myosuroides, post-emergence, 240 h, read-out: Plant response rating, Blackgrass; for pest or weed control at 125 g/ha: 125 g ai/ha, Postemergence, visual injury after approximately 10 d, 0 to 100 scale where 0 is no effect and 100 is complete control
Outline: as §2

[7] = tested on: wheat (Triticum aestivum); assay: Test A postemergence; details: Triticum aestivum, post-emergence, 240 h, read-out: Plant response rating, Wheat; for plant injury at 125 g/ha: 125 g ai/ha, Postemergence, visual injury after approximately 10 d, 0 to 100 scale where 0 is no effect and 100 is complete control
Outline: as §2

[8] = tested on: barnyardgrass (Echinochloa crus-galli); assay: Test A postemergence; details: Echinochloa crus-galli, post-emergence, 240 h, read-out: Plant response rating, Barnyardgrass; for pest or weed control at 125 g/ha: 125 g ai/ha, Postemergence, visual injury after approximately 10 d, 0 to 100 scale where 0 is no effect and 100 is complete control
Outline: as §2

[9] = tested on: pigweed (Amaranthus retroflexus); assay: Test A postemergence; details: Amaranthus retroflexus, post-emergence, 240 h, read-out: Plant response rating, Pigweed; for pest or weed control at 125 g/ha: 125 g ai/ha, Postemergence, visual injury after approximately 10 d, 0 to 100 scale where 0 is no effect and 100 is complete control
Outline: as §2

[10] = tested on: giant foxtail (Setaria faberii); assay: Test A postemergence; details: Setaria faberi, post-emergence, 240 h, read-out: Plant response rating, Foxtail, Giant; for pest or weed control at 125 g/ha: 125 g ai/ha, Postemergence, visual injury after approximately 10 d, 0 to 100 scale where 0 is no effect and 100 is complete control
Outline: as §2

[11] = tested on: ragweed (common ragweed, Ambrosia elatior); assay: Test A postemergence; details: Ambrosia artemisiifolia, post-emergence, 240 h, read-out: Plant response rating, Ragweed; for pest or weed control at 125 g/ha: 125 g ai/ha, Postemergence, visual injury after approximately 10 d, 0 to 100 scale where 0 is no effect and 100 is complete control
Outline: as §2

[12] = tested on: Galium (catchweed bedstraw, Galium aparine); assay: Test A postemergence; details: Galium, post-emergence, 240 h, read-out: Plant response rating, Galium; for pest or weed control at 125 g/ha: 125 g ai/ha, Postemergence, visual injury after approximately 10 d, 0 to 100 scale where 0 is no effect and 100 is complete control
Outline: as §2

[13] = 0 to 100 scale where 0 is no effect and 100 is complete control
[14] = 500 g ai/ha, postemergence, visual injury, 0 to 100 scale (0 no effect, 100 complete control), approx. 10 d
[15] = scale of 0 to 100 where 0 is no effect and 100 is complete control

COc1ccc([C@H]2CN(C)C(=O)[C@@H]2C(=O)Nc2cccc(F)c2F)cc1F [Compound 1021]
pest or weed control at 125 g/ha [1]: 70% | pest or weed control at 500 g/ha [1]: 80% | pest or weed control at 250 g/ha [2, 13]: 0% | pest or weed control at 250 g/ha [3, 13]: 98% | pest or weed control at 250 g/ha [4, 13]: 80% | pest or weed control at 250 g/ha (rice (Oryra sativa); [13]): 15% | pest or weed control at 125 g/ha (Kochia (Kochia scoparia)): 70% | pest or weed control at 500 g/ha (Kochia (Kochia scoparia); [14]): 70% | pest or weed control at 125 g/ha [5]: 40% | pest or weed control at 500 g/ha [5, 14]: 70% | Corn plant response rating (crop injury, 0 = no effect, 100 = complete kill) at 125 g/ha (corn (Zea mays)): 60% | Corn plant response rating (crop injury, 0 = no effect, 100 = complete kill) at 500 g/ha (corn (Zea mays); [14]): 80% | pest or weed control at 125 g/ha [6]: 20% | pest or weed control at 500 g/ha [6, 14]: 50% | plant injury at 125 g/ha [7]: 40% | plant injury at 500 g/ha [7, 14]: 60% | pest or weed control at 125 g/ha [8]: 100% | pest or weed control at 500 g/ha [8, 14]: 100% | pest or weed control at 125 g/ha [9]: 0% | pest or weed control at 500 g/ha [9, 14]: 50% | pest or weed control at 125 g/ha [10]: 90% | pest or weed control at 500 g/ha [10, 14]: 90% | pest or weed control at 125 g/ha [11]: 40% | pest or weed control at 500 g/ha [11, 14]: 60% | pest or weed control at 125 g/ha [12]: 50% | pest or weed control at 500 g/ha [12, 14]: 70%

CN1C[C@H](c2csc(C(F)(F)F)c2)[C@@H](C(=O)Nc2cccc(F)c2F)C1=O [Compound 959]
pest or weed control at 125 g/ha [1]: 0% | pest or weed control at 500 g/ha [1]: 30% | pest or weed control at 250 g/ha [2, 15]: 0% | pest or weed control at 250 g/ha [3, 15]: 100% | pest or weed control at 250 g/ha [4, 15]: 60% | pest or weed control at 250 g/ha (rice (Oryra sativa); [15]): 20% | pest or weed control at 125 g/ha (Kochia (Kochia scoparia)): 50% | pest or weed control at 125 g/ha [5]: 30% | Corn plant response rating (crop injury, 0 = no effect, 100 = complete kill) at 125 g/ha (corn (Zea mays)): 30% | pest or weed control at 125 g/ha [6]: 30% | plant injury at 125 g/ha [7]: 20% | pest or weed control at 125 g/ha [8]: 90% | pest or weed control at 125 g/ha [9]: 0% | pest or weed control at 125 g/ha [10]: 80% | pest or weed control at 125 g/ha [11]: 0% | pest or weed control at 125 g/ha [12]: 40%

CN1CC[C@H](c2ccc(OC(F)(F)F)cc2)[C@@H](C(=O)Nc2cccc(F)c2F)C1=O [Compound 999]
pest or weed control at 125 g/ha [1]: 0% | pest or weed control at 500 g/ha [1]: 50% | pest or weed control at 250 g/ha [2, 13]: 0% | pest or weed control at 250 g/ha [3, 13]: 85% | pest or weed control at 250 g/ha [4, 13]: 0% | pest or weed control at 250 g/ha (rice (Oryra sativa); [13]): 0% | pest or weed control at 125 g/ha (Kochia (Kochia scoparia)): 40% | pest or weed control at 125 g/ha [5]: 0% | Corn plant response rating (crop injury, 0 = no effect, 100 = complete kill) at 125 g/ha (corn (Zea mays)): 0% | pest or weed control at 125 g/ha [6]: 0% | plant injury at 125 g/ha [7]: 0% | pest or weed control at 125 g/ha [8]: 100% | pest or weed control at 125 g/ha [9]: 0% | pest or weed control at 125 g/ha [10]: 40% | pest or weed control at 125 g/ha [11]: 0% | pest or weed control at 125 g/ha [12]: 0%

CN1C[C@H](c2cc(C(F)(F)F)cs2)[C@@H](C(=O)Nc2ccccc2F)C1=O [Compound 962]
pest or weed control at 125 g/ha [1]: 0% | pest or weed control at 500 g/ha [1]: 50% | pest or weed control at 250 g/ha [2, 15]: 0% | pest or weed control at 250 g/ha [3, 15]: 90% | pest or weed control at 250 g/ha [4, 15]: 60% | pest or weed control at 250 g/ha (rice (Oryra sativa); [15]): 10% | pest or weed control at 125 g/ha (Kochia (Kochia scoparia)): 20% | pest or weed control at 125 g/ha [5]: 20% | Corn plant response rating (crop injury, 0 = no effect, 100 = complete kill) at 125 g/ha (corn (Zea mays)): 0% | pest or weed control at 125 g/ha [6]: 20% | plant injury at 125 g/ha [7]: 30% | pest or weed control at 125 g/ha [8]: 90% | pest or weed control at 125 g/ha [9]: 0% | pest or weed control at 125 g/ha [10]: 90% | pest or weed control at 125 g/ha [11]: 0% | pest or weed control at 125 g/ha [12]: 30%
